The NIST ThermoML archive (doi:10.1021/je300148f)

Settings: Liquid, isochoric method

FC(F)(F)C(F)(F)C(F)(F)F [octafluoropropane]
Settings | mass density [kg/m3]
203.51 K, 5337.7 kPa | 1748.65
203.54 K, 25066 kPa | 1795.66
207.93 K, 30528 kPa | 1795.05
207.94 K, 10279 kPa | 1747.98
212.07 K, 14905 kPa | 1747.39
212.65 K, 36376 kPa | 1794.41
216.5 K, 40978 kPa | 1793.89
216.54 K, 1000.8 kPa | 1689.31
216.88 K, 20281 kPa | 1746.74
217.62 K, 2018.3 kPa | 1689.13
218.87 K, 3201.2 kPa | 1688.94
220.1 K, 4356.8 kPa | 1688.75
221 K, 5191.7 kPa | 1688.62
221.04 K, 25052 kPa | 1746.18
225.96 K, 30368 kPa | 1745.54
226.4 K, 10304 kPa | 1687.87
230.5 K, 35314 kPa | 1744.96
231.73 K, 15327 kPa | 1687.19
234.92 K, 39898 kPa | 1744.41
235.64 K, 915.8 kPa | 1615.88
236.89 K, 20178 kPa | 1686.54
237.72 K, 1980.7 kPa | 1615.62
239.2 K, 3133.7 kPa | 1615.41
240.32 K, 3992.9 kPa | 1615.26
241.96 K, 25015 kPa | 1685.92
241.97 K, 5288.2 kPa | 1615.05
247.06 K, 29611 kPa | 1685.32
248.4 K, 10248 kPa | 1614.25
253.05 K, 1037.7 kPa | 1548.82
253.35 K, 35422 kPa | 1684.57
254.58 K, 2042.7 kPa | 1548.62
254.84 K, 15219 kPa | 1613.5
256.2 K, 3092.6 kPa | 1548.41
257.67 K, 4032.3 kPa | 1548.23
257.99 K, 39644 kPa | 1684.03
259.38 K, 5163.9 kPa | 1548.03
260.6 K, 5918.9 kPa | 1547.89
261.38 K, 20247 kPa | 1612.75
262.2 K, 6953.3 kPa | 1547.71
264.92 K, 1305.5 kPa | 1498.9
266.69 K, 2167.6 kPa | 1498.5
267.42 K, 10407 kPa | 1547.12
267.61 K, 24742 kPa | 1612.07
268.4 K, 3123.5 kPa | 1498.5
270.01 K, 4060.3 kPa | 1498.31
272.1 K, 5218.8 kPa | 1498.08
273.85 K, 29781 kPa | 1611.39
274.19 K, 14632 kPa | 1546.4
278.85 K, 1048.7 kPa | 1431.66
280.31 K, 34598 kPa | 1610.69
280.62 K, 9990.2 kPa | 1497.18
280.96 K, 2016.5 kPa | 1431.43
282.61 K, 20193 kPa | 1545.52
283.12 K, 3037.6 kPa | 1431.2
285.2 K, 4021.6 kPa | 1430.98
287.19 K, 39685 kPa | 1609.96
287.23 K, 4975.5 kPa | 1430.78
289.39 K, 15154 kPa | 1496.29
290.43 K, 25199 kPa | 1544.72
294.19 K, 1027.2 kPa | 1348.77
296.89 K, 2032 kPa | 1348.25
298.14 K, 10127 kPa | 1429.72
298.14 K, 10227 kPa | 1432.13
298.15 K, 20139 kPa | 1495.43
298.17 K, 30128 kPa | 1543.94
299.56 K, 3026.3 kPa | 1348.25
302.24 K, 4025.2 kPa | 1348
305.19 K, 5144.5 kPa | 1347.73
305.57 K, 34457 kPa | 1543.21
306.47 K, 24759 kPa | 1494.63
308.23 K, 15310 kPa | 1431.18
313.2 K, 39261 kPa | 1542.45
316.93 K, 30165 kPa | 1493.65
318.2 K, 1978.9 kPa | 1206.47
318.2 K, 2006.9 kPa | 1206.47
318.2 K, 10061 kPa | 1346.6
318.2 K, 19323 kPa | 1427.89
318.2 K, 20116 kPa | 1430.27
318.21 K, 9971.7 kPa | 1346.6
322.1 K, 2987.3 kPa | 1206.16
325.72 K, 35057 kPa | 1492.81
326.06 K, 3974.1 kPa | 1205.86
328.08 K, 24771 kPa | 1429.38
329.83 K, 4928.6 kPa | 1205.58
330.81 K, 14738 kPa | 1345.54
332.72 K, 39008 kPa | 1492.14
339.5 K, 7422.8 kPa | 1204.86
341.2 K, 30200 kPa | 1425.83
344.83 K, 20114 kPa | 1344.37
353.16 K, 23269 kPa | 1343.69
353.16 K, 35743 kPa | 1424.77
353.17 K, 10953 kPa | 1203.86
